# In PMC7910569 (Scientific Data, 2021):
# Like-named read-outs stand apart in the source and are kept apart here.
# Key:
# [1] = system: SARS-CoV-2; assay type: cell-based; conditions: 10 µM
# Experimental: For the primary screen, the final compound concentration was 10 µM (in 0.1% DMSO) and each compound was tested in singlicate. Concentration-response profiling of primary hits was performed in triplicate with eight concentrations ranging from 20 µM to 20 nM (half-log dilution factor, 0.1% DMSO final). For initial dose response studies, compounds were tested on three different plates to minimise the influence of plate effects. Later dose response studies at lower concentrations were also done on the same plate. Following the addition of compounds, cells were immediately infected with SARS-CoV-2 at a multiplicity of infection (MOI) of 0.01. Positive controls were prepared with the virus but no compounds, and negative controls were prepared without the virus. After 48 h, the medium was removed and cells were fixed in 3% paraformaldehyde in phosphate-buffered saline (PBS). The plates were sealed and disinfected to inactivate the virus[13] then screened by high-content imaging using the Operetta CLS platform (PerkinElmer). The image data were processed as described below and deposited on the Image Data Resource[14].
# Images were acquired using a 10× objective with nine imaged fields per well in label-free mode by digital phase contrast (DPC). […] This method improves the signal-to-noise ratio and allows for image segmentation and single-cell analysis. The images were analysed using PerkinElmer Columbus v2.9.0. The analysis sequence started with cell detection (method c, common threshold 0.05, area >100 µm^2, splitting coefficient 6.5, individual threshold 0.05, contrast >0.05) and was followed by calculating morphology, intensity and position properties as well as cell confluence (Fig. 2). The data were deposited on the Image Data Resource[14]. Although we used cell confluence as a read out parameter additional parameters were calculated and deposited as well. These parameters can be used for further analysis to include parameters related to cellular stress or cytoskeletal impairment, both critical for viral replication. Well-level data were analysed in ActivityBase (IDBS) and R v3.6.1, using cell confluence as final read out parameter. […] Outliers were eliminated according to the three-sigma method. Plate-level statistical performance was assessed using the Z’factor calculation with values between 0.35 and 1.0 representing an acceptable assay. Data for the primary screen were deposited on ChEMBL[17].Concentration-response curves were fitted in GraphPad Prism v8.0.0 (GraphPad Software) using a four-parameter […] (least squares fit). Data for the dose-response screen were deposited on ChEMBL[18].
# Cytopathicity assays were conducted in 96 well Cellstar plates (Greiner bio-one) using 4 wells with cells without virus (negative control) and 4 wells with cells and with virus (positive control). A three-sigma invalidation was performed on the raw data of the controls on each plate, resulting in maximal one invalidated well per plate during primary screening. During hit confirmation and dose-response studies no wells were eliminated as all wells were within three-sigma. After invalidation the plate specific z’factor was calculated and the plate was removed if quality criteria (z’factor > 0.35) were not met. Plates passing quality control were analysed and normalized as specified above. Hits were identified by having at least 75% efficiency in blocking viral cytopathicity at 10 µM.
# [2] = system: SARS-CoV-2; conditions: for anti-cytopathic activity against SARS-CoV-2 (in words): Caco-2, hits / concentration-response screen; for inhibition of cytopathicity in the concentration-response screen: Caco-2, compound concentrations of up to 20 µM
# [3] = system: SARS-CoV-2; conditions: Vero-E6, read-out: Reports SARS-CoV-2 (Vero-E6) IC50, cited from earlier work
# [4] = system: MERS-CoV; conditions: Calu-3; read-out: Reports MERS (Vero-6, Calu-3 or BHK21) IC50; cited from earlier work
# [5] = system: SARS-CoV; conditions: read-out: Reports SARS-CoV (Vero-E6) IC50, cited from earlier work
# [6] = in vitro; conditions: human, Caco-2
# [7] = system: SARS-CoV-2; experiment: microbe, parasite or virus in culture; conditions: Severe acute respiratory syndrome coronavirus 2, Caco-2, 48 h, read-out: Results SARS-CoV-2 (Caco-2) IC50
# [8] = system: SARS-CoV; conditions: Calu-3; read-out: Reports SARS-CoV (Vero-E6 or Calu-3) IC50; cited from earlier work
# [9] = system: MERS-CoV; conditions: cited from earlier work
# [10] = system: MERS-CoV; conditions: BHK-21; read-out: Reports MERS (Vero-6, Calu-3 or BHK21) IC50; cited from earlier work
# [11] = singlicate, Caco-2, 48 h, hit = at least 75% inhibition of cytopathicity
# [12] = Vero-E6, ref 53, read-out: Reports MERS (Vero-E6) IC50
compound,measurement,setting,value
CCCCN(CCCC)CC(O)c1cc(Cl)cc2c1-c1ccc(Cl)cc1/C2=C/c1ccc(Cl)cc1 (stereo not drawn) [lumefantrine],activity in the primary screen (in words),[1]; [11],inactive
N=C(N)c1ccc2cc(OC(=O)c3ccc(N=C(N)N)cc3)ccc2c1 [nafamostat],potency against SARS-CoV-2 in Caco-2 cell assay relative to previous studies using Vero-E6 cells,"[2]; comparison with refs 27, 28",> 500 fold
same,IC50,"[3]; ref 27, 28",22.5 µM
same,IC50,[4],0.1 µM
Cc1c(C(=O)Nc2ccc(N3C[C@@H](C)O[C@@H](C)C3)nc2)cccc1-c1ccc(OC(F)(F)F)cc1 [LDE225],anti-cytopathic activity against SARS-CoV-2 (in words),[2],identified
CCC(CC)COC(=O)[C@H](C)N[P@](=O)(OC[C@H]1O[C@@](C#N)(c2ccc3c(N)ncnn23)[C@H](O)[C@@H]1O)Oc1ccccc1 [remdesivir],IC50,"[5]; Vero-E6, ref 22",0.069 µM
same,CC50,[6],> 20 µM
same,IC50,[7],0.76 ± 0.18 µM
N#CC(c1ccnc(OCc2ccc(CN3CCOCC3)cc2)n1)c1nc2ccccc2s1 (stereo not drawn) [bentamapimod],CC50 at 48 h,[6],> 20 µM
same,IC50,[7],5.9 µM
CCN(CC)Cc1cc(Nc2ccnc3cc(Cl)ccc23)ccc1O [amodiaquine],activity in the primary screen (in words),[1]; [11],inactive
CN(C)C(=O)COC(=O)Cc1ccc(OC(=O)c2ccc(NC(=N)N)cc2)cc1 [camostat],IC50,[3]; ref 23,> 50 µM
same,IC50,[3]; ref 24,1 µM
same,IC50,[8],~1 µM
same,IC50,[4],1 µM
same,IC50,[7],< 1 µM
CCN(CC)CCCC(C)Nc1ccnc2cc(Cl)ccc12 (stereo not drawn) [chloroquine diphosphate],activity in the primary screen (in words),[1]; 48 h,inactive
C[C@@H]1CN(Cc2ccc(F)cc2)[C@@H](C)CN1C(=O)c1cc2c(C(=O)C(=O)N(C)C)cn(C)c2cc1Cl [talmapimod],CC50,[6],> 20 µM
same,IC50,[7],9.6 µM
OC(c1cc(C(F)(F)F)nc2c(C(F)(F)F)cccc12)C1CCCCN1 (stereo not drawn) [mefloquine],activity in the primary screen (in words),[1]; [11],identified in the primary screen
same,IC50,[3]; ref 23,4.33 µM
same,IC50,[3]; ref 55,8.06 µM
same,IC50,"[5]; Vero-E6, ref 53",7.41 µM
same,IC50,[9]; [12],15.5 µM
CCN(CC)CCCC(C)Nc1ccnc2cc(Cl)ccc12 (stereo not drawn) [chloroquine],anti-cytopathic activity against SARS-CoV-2 (in words),[2],not observed
same,IC50,[3]; ref 22,1.13 µM
same,IC50,[3]; ref 55,46.8 µM
same,IC50,"[5]; Vero-E6, ref 56",4.4 µM
same,IC50,[9]; [12],6.28 µM
same,IC50,[7],> 20 µM
CC(C)CN(C[C@@H](O)[C@H](Cc1ccccc1)NC(=O)O[C@H]1CO[C@H]2OCC[C@H]21)S(=O)(=O)c1ccc(N)cc1 [darunavir],activity in the primary screen (in words),[1]; [11],inactive
Nc1nc2c(ncn2[C@@H]2O[C@H](CO)[C@@H](O)[C@H]2O)c(=S)[nH]1 [thioguanosine],CI (cytotoxicity index),"[2]; printed as CI = IC50/CC50, Caco-2 toxicity versus SARS-CoV-2 anti-cytopathic effect",< 3
same,IC50,[7],0.78 µM
NS(=O)(=O)OC[C@@H]1C[C@@H](n2ccc3c(N[C@H]4CCc5ccccc54)ncnc32)C[C@@H]1O [pevonedistat],IC50,[7],< 1 µM
COc1cc(NC(C)CCCN)c2ncccc2c1 (stereo not drawn) [primaquine],activity in the primary screen (in words),[1]; [11],inactive
C[C@H](CS)C(=O)N1CCC[C@H]1C(=O)O [captopril],activity in the primary screen (in words),[1]; [11],did not identify
Cc1cccc2c1CC[C@H](CN1CCC(c3c(Cl)cccc3Cl)CC1)C[C@@H]2O [SB-612111],IC50,[7],0.77 µM
CC(C)c1nc(CN(C)C(=O)N[C@H](C(=O)N[C@@H](Cc2ccccc2)C[C@H](O)[C@H](Cc2ccccc2)NC(=O)OCc2cncs2)C(C)C)cs1 [ritonavir],activity in the primary screen (in words),[1]; 48 h,inactive
COc1cc(C)c2c(Oc3cccc(C(F)(F)F)c3)c(OC)cc(NC(C)CCCN)c2n1 (stereo not drawn) [tafenoquine],activity in the primary screen (in words),[1]; [11],inactive
same,inhibition of cytopathicity in the concentration-response screen,[2],< 50%
CC(=NNC(=S)N1CC2CCC(CC2)C1)c1ccccn1 [NSC319276],anti-cytopathic activity against SARS-CoV-2 (in words),[2],moderately potent
CNS(=O)(=O)Nc1nccc(Cc2c(C)c3ccc(Oc4ncccn4)cc3oc2=O)c1F [RO5126766],CC50,[6],> 20 µM
same,IC50,[7],18.2 µM
COC(=O)C[C@](O)(CCCC(C)(C)O)C(=O)O[C@@H]1C(OC)=C[C@]23CCCN2CCc2cc4c(cc2[C@H]13)OCO4 [homo-harringtonine],anti-cytopathic activity against SARS-CoV-2 (in words),[2],identified
C[C@@H]1C[C@@H]([C@H](O)CC2CC(=O)NC(=O)C2)C(=O)[C@@H](C)C1 [cycloheximide],IC50,[5],0.043 µM
same,IC50,[9]; read-out: Reports MERS (Vero-E6) IC50,0.16 µM
same,CC50 at 48 h,[6],> 20 µM
same,IC50,[7],0.58 ± 0.02 µM
CC[C@H]1CN2CCc3cc(OC)c(OC)cc3[C@@H]2C[C@@H]1C[C@H]1NCCc2cc(OC)c(OC)cc21 [emetine],CI (cytotoxicity index),[2]; human,2
same,IC50,"[5]; Vero-E6, ref 53",0.051 µM
same,IC50,"[9]; Vero-E6, ref 54, read-out: Reports MERS (Vero-E6) IC50",0.08 µM
same,CC50,[6],1.13 ± 0.5 µM
same,IC50,[7],0.52 ± 0.09 µM
C=C(c1ccccc1OCc1cccc(Cl)c1)n1ccnc1 [cloconazole],IC50,[2]; read-out: Results SARS-CoV-2 (Caco-2) IC50,≥ 20 µM
"O[C@@H](COc1cccc2ncccc12)CN1CCN([C@@H]2c3ccccc3[C@@H]3[C@H](c4ccccc42)C3(F)F)CC1 [LY335979, zosuquidar]",anti-cytopathic activity against SARS-CoV-2 (in words),[2],identified
COc1ccc(Cc2nccc3cc(OC)c(OC)cc23)cc1OC [papaverine],IC50,[10],9.45 µM
Cc1cccc(C)c1OCC(=O)N[C@@H](Cc1ccccc1)[C@@H](O)C[C@H](Cc1ccccc1)NC(=O)[C@H](C(C)C)N1CCCNC1=O [lopinavir],anti-cytopathic activity against SARS-CoV-2 (in words),[2],active at the highest concentration
same,IC50,[3]; ref 23,9.12 µM
same,"Reports MERS (Vero-6, Calu-3 or BHK21) IC50","[9]; Vero-E6, ref 57, 58",not active
same,IC50,"[9]; Vero-E6, ref 57, 58, read-out: Reports MERS (Vero-6, Calu-3 or BHK21) IC50",8 µM
COc1ccc2nc3cc(Cl)ccc3c(Nc3cc(CN4CCCC4)c(O)c(CN4CCCC4)c3)c2n1 [pyronaridine],activity in the primary screen (in words),[1]; [11],inactive
same,inhibition of cytopathicity in the concentration-response screen,[2],< 50%
CCN(CCO)CCCC(C)Nc1ccnc2cc(Cl)ccc12 (stereo not drawn) [hydroxychloroquine],activity in the primary screen (in words),[1]; [11],inactive
